According to ChEMBL document CHEMBL3616403, “Probing a 3,4'-bis-guanidinium diaryl derivative as an allosteric inhibitor of the Ras pathway” (Bioorg Med Chem Lett, 2015):
Calls of active or inactive are those of the source. The calls are words filed in the database; no cut-off is given here.

Legend:
[1] = Cytotoxicity against human T29 cells expressing wild type B-Raf assessed as cell viability after 72 hrs by MTT assay; type: functional, cell-based; details: T29, 72 h
[2] = Cytotoxicity against human F-6-8 cells expressing B-Raf V600E mutant assessed as cell viability after 72 hrs by MTT assay; type: functional, cell-based
[3] = biological target: Epidermal growth factor receptor (Homo sapiens) (UniProt P00533); assay: Inhibition EGFR in human T29 cells assessed as suppression of STAT3 phosphorylation at Tyr705 after 24 hrs by Western blot analysis; type: cell-based
[4] = biological target: Epidermal growth factor receptor (Homo sapiens) (UniProt P00533); assay: Inhibition of EGFR in human T29 cells assessed as suppression of C-Raf phosphorylation at p-21-activated protein kinase site, Ser338 after 24 hrs by Western blot analysis; type: cell-based
[5] = biological target: Epidermal growth factor receptor (Homo sapiens) (UniProt P00533); assay: Inhibition of EGFR in human T29 cells assessed as suppression of AKT phosphorylation at mTORC2 site, Ser473 after 24 hrs by Western blot analysis; type: cell-based
[6] = biological target: Epidermal growth factor receptor (Homo sapiens) (UniProt P00533); assay: Inhibition of EGFR in human T29 cells assessed as suppression of MEK phosphorylation at Ser217/Ser221 after 24 hrs by Western blot analysis; type: cell-based
[7] = biological target: Epidermal growth factor receptor (Homo sapiens) (UniProt P00533); assay: Inhibition of EGFR in human T29 cells assessed as suppression of ERK phosphorylation at Tyr204 after 24 hrs by Western blot analysis; type: cell-based
[8] = biological target: Serine/threonine-protein kinase B-raf (Homo sapiens) (UniProt P15056); assay: Inhibition of recombinant B-Raf (unknown origin) expressed in HEK293 cells using MEK1 peptide as substrate at 20 uM after 15 mins by radiometric assay in presence of [gamma-32P]ATP
[9] = biological target: Serine/threonine-protein kinase B-raf (Homo sapiens) (UniProt P15056); assay: Competitive inhibition of recombinant B-Raf (unknown origin) expressed in HEK293 cells up to 100 uM after 60 to 120 mins by FRET analysis in presence of ATP; type: cell-based
T29 [10] = assay: Induction of apoptosis in human T29 cells assessed as PARP cleavage at 10 uM after 24 hrs by Western blot analysis; type: functional, cell-based
[11] = Selectivity ratio of IC50 for human F-6-8 cells expressing B-Raf V600E mutant to IC50 for human T29 cells expressing wild type B-Raf; type: functional
T29 [12] = assay: Cytotoxicity against human T29 cells assessed as increase in membrane blebbing at 10 uM after 24 hrs by inverted microscopic analysis; type: functional, cell-based
T29 [13] = assay: Cytotoxicity against human T29 cells assessed as increase in cell shrinkage at 10 uM after 24 hrs by inverted microscopic analysis; type: functional, cell-based
T29 [14] = assay: Cytotoxicity against human T29 cells assessed as increase in nuclear fragmentation at 10 uM after 24 hrs by inverted microscopic analysis; type: functional, cell-based
T29 [15] = assay: Cytotoxicity against human T29 cells assessed as cell detachment from culture dish at 10 uM after 24 hrs by inverted microscopic analysis; type: functional, cell-based
[16] = Cell cycle arrest in human T29 cells assessed as increase in cell level at pre-G1 phase at 5 uM after 48 hrs by propidium iodide staining-based flow cytometric analysis; type: functional
[17] = Cell cycle arrest in human T29 cells assessed as increase in cell level at pre-G1 phase at 10 uM after 48 hrs by propidium iodide staining-based flow cytometric analysis; type: functional
[18] = Cell cycle arrest in human T29 cells assessed as decrease in cell level at G0/G1 phase at 5 to 10 uM after 48 to 72 hrs by propidium iodide staining-based flow cytometric analysis; type: functional
[19] = Cell cycle arrest in human T29 cells assessed as decrease in cell level at S phase at 5 to 10 uM after 48 to 72 hrs by propidium iodide staining-based flow cytometric analysis; type: functional
[20] = Cell cycle arrest in human T29 cells assessed as decrease in cell level at G2/M phase at 5 to 10 uM after 48 to 72 hrs by propidium iodide staining-based flow cytometric analysis; type: functional
[21] = Cell cycle arrest in human T29 cells assessed as increase in cell level at pre-G1 phase at 5 uM after 72 hrs by propidium iodide staining-based flow cytometric analysis; type: functional
[22] = Cell cycle arrest in human T29 cells assessed as increase in cell level at pre-G1 phase at 10 uM after 72 hrs by propidium iodide staining-based flow cytometric analysis; type: functional
[23] = biological target: Epidermal growth factor receptor (Homo sapiens) (UniProt P00533); assay: Inhibition of EGFR autophosphorylation at Tyr1068 in human T29 cells after 24 hrs by Western blot analysis; type: cell-based
[24] = biological target: Epidermal growth factor receptor (Homo sapiens) (UniProt P00533); assay: Inhibition of EGFR in human T29 cells assessed as suppression of Src phosphorylation at Tyr416 after 24 hrs by Western blot analysis; type: cell-based

Sequence of Epidermal growth factor receptor (Homo sapiens) (P00533 whole entry): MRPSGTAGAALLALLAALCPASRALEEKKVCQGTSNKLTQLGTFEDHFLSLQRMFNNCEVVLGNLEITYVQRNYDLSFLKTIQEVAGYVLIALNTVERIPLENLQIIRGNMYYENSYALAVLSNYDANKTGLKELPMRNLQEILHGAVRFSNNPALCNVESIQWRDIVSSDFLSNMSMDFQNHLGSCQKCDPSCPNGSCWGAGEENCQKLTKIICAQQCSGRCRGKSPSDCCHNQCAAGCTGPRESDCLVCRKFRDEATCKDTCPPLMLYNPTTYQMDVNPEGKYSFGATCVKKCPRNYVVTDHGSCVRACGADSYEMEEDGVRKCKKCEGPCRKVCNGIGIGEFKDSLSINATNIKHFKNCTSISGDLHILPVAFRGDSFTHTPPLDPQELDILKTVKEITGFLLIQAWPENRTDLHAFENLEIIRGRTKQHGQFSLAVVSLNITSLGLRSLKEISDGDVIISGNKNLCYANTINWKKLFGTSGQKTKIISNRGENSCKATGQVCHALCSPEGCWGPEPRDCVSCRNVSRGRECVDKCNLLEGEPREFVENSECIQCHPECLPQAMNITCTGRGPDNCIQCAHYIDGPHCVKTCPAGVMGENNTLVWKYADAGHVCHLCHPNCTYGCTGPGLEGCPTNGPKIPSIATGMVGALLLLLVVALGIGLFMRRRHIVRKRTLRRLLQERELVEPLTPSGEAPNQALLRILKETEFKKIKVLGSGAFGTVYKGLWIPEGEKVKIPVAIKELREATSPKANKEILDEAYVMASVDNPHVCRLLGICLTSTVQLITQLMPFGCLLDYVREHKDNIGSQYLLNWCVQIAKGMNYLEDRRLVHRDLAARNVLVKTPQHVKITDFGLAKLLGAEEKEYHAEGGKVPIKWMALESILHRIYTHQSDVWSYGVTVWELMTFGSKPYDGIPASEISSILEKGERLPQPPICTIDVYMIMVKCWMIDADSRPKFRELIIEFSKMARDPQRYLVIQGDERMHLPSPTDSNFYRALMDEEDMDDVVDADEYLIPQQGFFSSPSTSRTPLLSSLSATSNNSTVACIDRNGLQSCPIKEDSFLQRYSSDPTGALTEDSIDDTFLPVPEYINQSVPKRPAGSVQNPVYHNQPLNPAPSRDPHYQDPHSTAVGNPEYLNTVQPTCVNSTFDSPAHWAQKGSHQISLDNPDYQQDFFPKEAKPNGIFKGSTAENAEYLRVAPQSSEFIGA
Sequence of Serine/threonine-protein kinase B-raf (Homo sapiens) (P15056 whole entry): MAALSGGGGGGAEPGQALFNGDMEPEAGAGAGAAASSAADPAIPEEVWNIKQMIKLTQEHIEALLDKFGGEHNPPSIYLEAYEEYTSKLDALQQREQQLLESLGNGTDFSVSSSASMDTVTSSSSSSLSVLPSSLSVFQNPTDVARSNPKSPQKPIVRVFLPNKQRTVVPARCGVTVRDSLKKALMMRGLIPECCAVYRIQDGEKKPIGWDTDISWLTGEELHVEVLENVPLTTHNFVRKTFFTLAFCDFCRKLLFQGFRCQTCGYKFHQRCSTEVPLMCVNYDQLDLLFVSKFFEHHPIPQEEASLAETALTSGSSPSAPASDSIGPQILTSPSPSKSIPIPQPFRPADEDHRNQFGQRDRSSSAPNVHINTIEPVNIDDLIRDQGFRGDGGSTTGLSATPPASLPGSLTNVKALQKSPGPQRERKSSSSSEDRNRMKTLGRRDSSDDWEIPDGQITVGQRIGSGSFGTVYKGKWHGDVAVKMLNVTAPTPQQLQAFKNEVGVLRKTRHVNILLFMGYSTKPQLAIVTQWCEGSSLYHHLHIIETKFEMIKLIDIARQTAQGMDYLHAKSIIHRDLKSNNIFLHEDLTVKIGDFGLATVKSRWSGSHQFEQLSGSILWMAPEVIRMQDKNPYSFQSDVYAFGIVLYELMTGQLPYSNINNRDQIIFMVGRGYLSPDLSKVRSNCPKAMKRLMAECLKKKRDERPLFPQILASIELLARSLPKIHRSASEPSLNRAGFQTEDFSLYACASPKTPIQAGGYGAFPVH

N=C(N)Nc1ccc(Oc2cccc(NC(=N)N)c2)cc1
IC50 [1]: 6.5 µM
IC50 [2]: 9.8 µM

CNC(=O)c1cc(Oc2ccc(NC(=O)Nc3ccc(Cl)c(C(F)(F)F)c3)cc2)ccn1 [SORAFENIB]
IC50 [1]: 0.9 µM
IC50 [2]: 1.3 µM

N=C(N)Nc1cccc(Cc2ccc(NC(=N)Nc3ccc(Cl)c(C(F)(F)F)c3)cc2)c1
IC50 [1]: 4.5 µM
IC50 [2]: 7.6 µM

CC(=O)Nc1cccc(Nc2ccc(NC(=N)Nc3ccc(Cl)c(C(F)(F)F)c3)cc2)c1
IC50 [1]: 4.1 µM
IC50 [2]: 6.6 µM

N=C(N)Nc1ccc(Oc2cccc(NC(=N)Nc3ccc(Cl)c(C(F)(F)F)c3)c2)cc1
inhibition [3]: Dose-dependent effect
inhibition [4]: Dose-dependent effect
inhibition [5]: Dose-dependent effect
inhibition [6]: Dose-dependent effect
inhibition [7]: Dose-dependent effect
inhibition [8]: Active
inhibition [9]: inactive
Activity (T29 [10]): Active
IC50 [1]: 0.9 µM
IC50 [2]: 2.6 µM
Ratio IC50 [11]: 2
Activity (T29 [12]): Active
Activity (T29 [13]): Active
Activity (T29 [14]): Active
Activity (T29 [15]): Active
Activity [16]: 8.5%
Activity [17]: 20.7%
Activity [18]: Active
Activity [19]: Active
Activity [20]: Active
Activity [21]: 22.5%
Activity [22]: 38.7%
inhibition [23]: Dose-dependent effect
inhibition [24]: Dose-dependent effect
